Measurements reported in patent US10538674B2, “Method of forming anti-rust or anti-bacterial film containing tannic acid derivatives” (NATIONAL INSTITUTE FOR MATERIALS SCIENCE, priority 2014, dated 2020).

Assays:
[1] = system: methicillin-resistant Staphylococcus Aureus (MRSA); test: Pasteurization/Sterilization Testing 1: MRSA scattered on film on glass substrate; assay type: cell-based; settings: drop-cast film on glass substrate, 24 hours after scattering; 0 hour count 1.2 × 10^5
[2] = system: colon bacilli (E. Coli); test: Pasteurization/Sterilization Testing 1: E. Coli scattered on film on glass substrate; assay type: cell-based; settings: drop-cast film on glass substrate, room temperature, 24 hours after scattering, 0 hour count 1.2×10^5
Description: Using TA (Comparative Example 1), TA(C6)10 (Example 6), TA(C10)10 (Example 2), and TA(C16)10 (Example 8), respectively, a film was formed by drop-casting on a 5 cm×5 cm glass substrate. Preparing a THF solution, drop-casting of the THF solution in an amount of 1.1 mg/cm^2 was followed by annealing under the conditions of 1 hour and 80° C. to prepare a drop-cast film. The TA (Comparative Example 1), TA(C6)10 (Example 6), TA(C10)10 (Example 2), and TA(C16)10 (Example 8) film was formed on the glass substrate by the aforesaid method, and colon bacilli (E. Coli) were scattered on it to observe changes in the surface of the film at room temperature. FIG. 18 is a graph representative of the results of proliferation of bacteria on the film. The cell count of colon bacilli scattered at the start (0 hour) was 1.2×10^5 CFU/mL. After the lapse of 24 hours, that cell count increased to 1.4×10^7 CFU/mL for the TA coated (control) film. […] A problem with tannic acid—known so far to be capable of pasteurization in the form of an aqueous solution—was that a tannic acid film is wrinkled up, running short of durability. […] It is here to be noted that the unit CFU/mL is an abbreviation of a colony forming unit indicative of a quantitative unit used in the inspection of bacteria in foods or a unit of the quantity of bacteria. […]

[3] = system: golden staphs (S. Aureus); test: Pasteurization/Sterilization Testing 1: S. Aureus scattered on film on glass substrate; assay type: cell-based; settings: drop-cast film on glass substrate, 24 hours after scattering; 0 hour count 1.1 × 10^5
[4] = Solubility upon addition to water and chloroform; assay type: physicochemical
Source text: Tannic acid powders (WAKO, 203-06331) were kept at the ready. FIG. 2(a) is a photograph taken of the external view of tannic acid powders, FIG. 2(b) is a photograph of the external view of tannic acid powders upon added to water, and FIG. 2(c) is a photograph of the external view of tannic acid powders upon added to chloroform. As shown in FIG. 2(a), the tannic acid powders were ocher powders. […] This tannic acid material was used for Comparative Example 1. FIG. 4(a) is a photograph taken of the external view of the derivative, and FIGS. 4(b) and 4(c) are photographs taken of the external views of the derivative upon added to water and chloroform, respectively.

## O=C(OC[C@H]1O[C@@H](OC(=O)c2cc(O)c(O)c(OC(=O)c3cc(O)c(O)c(O)c3)c2)[C@H](OC(=O)c2cc(O)c(O)c(OC(=O)c3cc(O)c(O)c(O)c3)c2)[C@@H](OC(=O)c2cc(O)c(O)c(OC(=O)c3cc(O)c(O)c(O)c3)c2)[C@@H]1OC(=O)c1cc(O)c(O)c(OC(=O)c2cc(O)c(O)c(O)c2)c1)c1cc(O)c(O)c(OC(=O)c2cc(O)c(O)c(O)c2)c1 [TA, tannic acid]
[1]
  Cell count of MRSA, 24 hours: 1.7 × 10^5 CFU/mL
[2]; listed as Control
  Cell count of E. Coli, 24 hours: 1.4 × 10^7 CFU/mL
[2]; listed as TA coated (control)
  Cell count of E. Coli, 24 hours: 1.4×10^7 CFU/mL
[3]
  Cell count of S. Aureus, 24 hours: 1.1 × 10^5 CFU/mL
[4]; upon added to chloroform (CHCl3)
  Solubility in chloroform: not in chloroform
[4]; upon added to water
  Solubility in water: dissolved in water
